# From patent US20120165310A1, “ETHER DERIVATIVES OF BICYCLIC HETEROARYLS” (NOVARTIS AG, priority 2009, published 2012)
# Target: T1, IGF-1R (Homo sapiens, UniProt P08069)
# T1 construct: expressed in transfected cells; host or cells: Hek293 (Hek293-IGF1R)
# Experiment: Cellular IGF-1R assay: capture ELISA (MSD) of receptor phosphorylation in Hek293 cells
# Assay type: cell-based
# Details: Hek293-IGF1R cells, 1 h pre-incubation, 10 min IGF stimulation, pIGF1R capture ELISA
# Outline: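 IC50 from 4-parameter fit of IGF1R phosphorylation, normalised to IGF-stimulated and unstimulated controls, measured by MSD capture ELISA on lysates. Hek293-IGF1R cells in starvation medium got compound 1 h (top 10 μM, 3-fold steps, 0.1% DMSO) before a 10 min pulse of 1.0 ng/μL IGF.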
# T1 sequence (P08069 31-1367): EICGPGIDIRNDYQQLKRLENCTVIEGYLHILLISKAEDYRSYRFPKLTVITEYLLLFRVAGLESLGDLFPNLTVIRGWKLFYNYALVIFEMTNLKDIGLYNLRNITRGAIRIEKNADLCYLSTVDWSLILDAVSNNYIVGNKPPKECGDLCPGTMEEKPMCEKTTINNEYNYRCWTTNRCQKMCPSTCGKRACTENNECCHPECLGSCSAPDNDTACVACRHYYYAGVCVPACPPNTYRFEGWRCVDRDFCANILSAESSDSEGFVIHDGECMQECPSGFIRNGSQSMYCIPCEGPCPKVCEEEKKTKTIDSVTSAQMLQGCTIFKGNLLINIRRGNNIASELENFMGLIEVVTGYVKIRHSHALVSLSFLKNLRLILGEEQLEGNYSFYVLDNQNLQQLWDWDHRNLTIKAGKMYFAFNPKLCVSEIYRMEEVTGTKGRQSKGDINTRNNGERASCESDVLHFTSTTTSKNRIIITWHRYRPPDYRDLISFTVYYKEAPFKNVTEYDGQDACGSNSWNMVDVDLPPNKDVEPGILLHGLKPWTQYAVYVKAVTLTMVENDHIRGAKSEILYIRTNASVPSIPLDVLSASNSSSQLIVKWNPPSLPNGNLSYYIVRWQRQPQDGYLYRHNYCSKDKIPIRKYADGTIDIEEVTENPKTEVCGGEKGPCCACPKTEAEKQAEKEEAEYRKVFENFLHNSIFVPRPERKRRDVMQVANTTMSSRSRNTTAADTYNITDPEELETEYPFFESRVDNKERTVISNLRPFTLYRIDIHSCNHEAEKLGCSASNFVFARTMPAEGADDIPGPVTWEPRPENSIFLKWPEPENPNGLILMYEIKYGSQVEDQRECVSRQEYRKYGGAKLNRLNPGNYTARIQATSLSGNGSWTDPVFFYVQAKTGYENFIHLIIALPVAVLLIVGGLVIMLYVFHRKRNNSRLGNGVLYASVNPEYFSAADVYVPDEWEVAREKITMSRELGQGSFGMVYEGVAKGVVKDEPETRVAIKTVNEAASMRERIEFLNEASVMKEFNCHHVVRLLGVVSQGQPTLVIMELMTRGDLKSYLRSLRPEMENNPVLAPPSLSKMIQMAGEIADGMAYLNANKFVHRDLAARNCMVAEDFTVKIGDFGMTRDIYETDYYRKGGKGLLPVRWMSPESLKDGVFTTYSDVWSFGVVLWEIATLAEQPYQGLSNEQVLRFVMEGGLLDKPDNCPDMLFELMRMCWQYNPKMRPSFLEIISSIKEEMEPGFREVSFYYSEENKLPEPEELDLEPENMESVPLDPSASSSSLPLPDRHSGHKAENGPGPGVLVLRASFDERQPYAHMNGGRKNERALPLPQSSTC
row,SMILES,IC50 [nM]
1,"Nc1ncnc2c1c(-c1cccc(OCC34CCC(CC3)O4)c1)cn2C1CC(O)(CN2CCC(O)C2)C1 (single isomer, unassigned) [Example 207]",327
2,"Nc1ncnc2c1c(-c1cccc(OCC3CCCCO3)c1)cn2[C@H]1C[C@@H](CN2CCC(F)CC2)C1 (relative stereo) [Example 32, 7-[cis-3-(4-fluoro-piperidin-1-ylmethyl)-cyclobutyl]-5-[3-(tetrahydro-pyran-2-ylmethoxy)-phenyl]-7H-pyrrolo[2,3-d]pyrimidin-4-ylamine]",309
3,"CC1(C)CCC(COc2cccc(-c3cn([C@H]4CC[C@H](N5CCOCC5)CC4)c4ncnc(N)c34)c2)O1 (relative stereo) [Example 64, 5-[3-(5,5-dimethyl-tetrahydro-furan-2-ylmethoxy)-phenyl]-7-(trans-4-morpholin-4-yl-cyclohexyl)-7H-pyrrolo[2,3-d]pyrimidin-4-ylamine]",367
4,"Nc1ncnc2c1c(-c1cccc(OCC34CCC(CC3)O4)c1)cn2C1CC(CNC(CO)CO)C1 (stereo not shown) [Example 168, 2-[(3-{4-amino-5-[3-(7-oxa-bicyclo[2.2.1]hept-1-ylmethoxy)-phenyl]-pyrrolo[2,3-d]pyrimidin-7-yl}-cyclobutylmethyl)-amino]-propane-1,3-diol]",109
5,"CC1CCC(COc2cccc(-c3cn(C4CC(CN5CCC5)C4)c4ncnc(N)c34)c2)O1 (single isomer, unassigned) [Example 7, cis-(RR and SS)-7-(3-azetidin-1-ylmethyl-cyclobutyl)-5-[3-(5-methyl-tetrahydro-furan-2-ylmethoxy)-phenyl]-7H-pyrrolo[2,3-d]pyrimidin-4-ylamine]",95 to 117
6,"CC1(C)CCC(COc2cccc(-c3cn([C@H]4C[C@@H](CN5CCNC(=O)C5)C4)c4ncnc(N)c34)c2)O1 (stereo partly drawn) [Example 61, 4-(cis-3-{4-amino-5-[3-(5,6-dimethyl-tetrahydro-furan-2-ylmethoxy)-phenyl]-pyrrolo[2,3-d]pyrimidin-7-yl}-cyclobutylmethyl)-piperazin-2-one]",212
7,"NC(=O)[C@H]1CCCN1C[C@H]1C[C@H](n2cc(-c3cccc(OCC4CCCO4)c3)c3c(N)ncnc32)C1 (stereo partly drawn) [Example 87, (R)-1-(trans-3-(4-amino-5-[3-(tetrahydro-furan-2-ylmethoxy)-phenyl]-pyrrolo[2,3-d]pyrimidin-7-yl}-cyclobutylmethyl)-pyrrolidine-2-carboxylic acid amide]",116
8,"Nc1ncnc2c1c(-c1cccc(OCC34CCC(CC3)O4)c1)cn2C1CCC(N2CC[C@H](F)C2)CC1 (stereo partly drawn) [Example 132, 5-(3-(7-oxabicyclo[2.2.1]heptan-1-ylmethoxy)phenyl)-7-((1R,4R)-4-((S)-3-fluoropyrrolidin-1-yl)cyclohexyl)-7H-pyrrolo[2,3-d]pyrimidin-4-amine]",114
9,"CN1CCN(C(=O)N[C@H]2CC[C@@H](n3cc(-c4cccc(OCC56CCC(CC5)O6)c4)c4c(N)ncnc43)CC2)CC1 [Example 140, N-((1R,4R)-4-(5-(3-(7-oxabicyclo[2.2.1]heptan-1-ylmethoxy)phenyl)-4-amino-7H-pyrrolo[2,3-d]pyrimidin-7-yl)cyclohexyl)-4-methylpiperazine-1-carboxamide]",473
10,"CC1(C)CCC(COc2cccc(-c3cn([C@H]4C[C@@H](CN5CCC(F)(F)CC5)C4)c4ncnc(N)c34)c2)O1 (single isomer, unassigned) [Example 54]",45 to 120
11,"Nc1ncnc2c1c(-c1cccc(OC[C@@H]3CCCO3)c1)cn2[C@H]1C[C@@H](N2CC[S+]([O-])CC2)C1 [Example 234, 7-[cis-3-(1-oxo-thiomorpholin-4-yl)-cyclobutyl]-5-{3-[(S)-1-(tetrahydro-furan-2-yl)methoxy]-phenyl}-7H-pyrrolo[2,3-d]pyrimidin-4-ylamine]",309
12,"Cc1nccn1C[C@H]1C[C@@H](n2cc(-c3cccc(OCC4CCCCO4)c3)c3c(N)ncnc32)C1 (relative stereo) [Example 154, 7-[cis-3-(2-methyl-imidazol-1-ylmethyl)-cyclobutyl]-5-[3-(tetrahydro-pyran-2-ylmethoxy)-phenyl]-7H-pyrrolo[2,3-d]pyrimidin-4-ylamine]",71
13,"Nc1ncnc2c1c(-c1cccc(OCC34CCC(CC3)O4)c1)cn2[C@H]1CC[C@H](c2cnco2)CC1 [Example 151, 5-(3-(7-oxabicyclo[2.2.1]heptan-1-ylmethoxy)phenyl)-7-((1R,4S)-4-(oxazol-5-yl)cyclohexyl)-7H-pyrrolo[2,3-d]pyrimidin-4-a mine]",271
14,"Nc1ncnc2c1c(-c1cccc(OCC3CCCCO3)c1)cn2C1CC(CN2CCCC2C(O)C(F)(F)F)C1 [Example 120, (1S)-1-((2S)-1-(((1S,3R)-3-(4-amino-5-(3-((tetrahydro-2H-pyran-2-yl)methoxy)phenyl)-7H-pyrrolo[2,3-d]pyrimidin-7-yl)cyclobutyl)methyl)pyrrolidin-2-yl)-2,2,2-trifluoroethanol]",195
15,"Nc1ncnc2c1c(-c1cccc(OCC3CCCCO3)c1)cn2[C@H]1C[C@@H](CN2CC[C@@H](O)C2)C1 (stereo partly drawn) [Example 33, (R)-1-(cis-3-{4-amino-5-[3-(tetrahydro-pyran-2-ylmethoxy)-phenyl]-pyrrolo[2,3-d]pyrimidin-7-yl}-cyclobutylmethyl)-pyrrolidin-3-ol]",235
16,"Nc1ncnc2c1c(-c1cccc(OCC34CCC(CC3)O4)c1)cn2[C@H]1CC[C@@H](CN2CCNC(=O)C2)CC1 [Example 129, 4-(((1S,4S)-4-(5-(3-(7-oxabicyclo[2.2.1]heptan-1-ylmethoxy)phenyl)-4-amino-7H-pyrrolo[2,3-d]pyrimidin-7-yl)cyclohexyl)methyl)piperazin-2-one]",320
17,"N#Cc1ccnc(N[C@H]2CC[C@@H](n3cc(-c4cccc(OCC56CCC(CC5)O6)c4)c4c(N)ncnc43)CC2)c1 [Example 145, 2-((1S,4S)-4-(5-(3-(7-oxabicyclo[2.2.1]heptan-1-ylmethoxy)phenyl)-4-amino-7H-pyrrolo[2,3-d]pyrimidin-7-yl)cyclohexylamino)isonicotinonitrile]",229
18,"CC1(C)CN(C[C@H]2C[C@@H](n3cc(-c4cccc(OCC5CCCCO5)c4)c4c(N)ncnc43)C2)CCS1(=O)=O (stereo partly drawn) [Example 105, 7-[cis-3-(2,2-Dimethyl-1,1-dioxo-1λ6-thiomorpholin-4-ylmethyl)-cyclobutyl]-5-[3-(tetrahydro-pyran-2-ylmethoxy)-phenyl]-7H-pyrrolo[2,3-d]pyrimidin-4-ylamine]",409
19,"CC(=O)N[C@H]1C[C@@H](n2cc(-c3cccc(OCC45CCC(CC4)O5)c3)c3c(N)ncnc32)C1 (relative stereo) [Example 223, N-(cis-3-{4-amino-5-[3-(7-oxa-bicyclo[2.2.1]hept-1-ylmethoxy)-phenyl]-pyrrolo[2,3-d]pyrimidin-7-yl}-cyclobutyl)-acetamide]",308

# The remaining lines, values ahead:
row,IC50 [nM],SMILES
1,7 to 14,"[2H]C([2H])(Oc1cccc(-c2cn([C@H]3C[C@@H](CN4CCS(=O)(=O)CC4)C3)c3ncnc(N)c23)c1)C12CCC(CC1)O2 [Example 159, d2-7-[cis-3-(1,1-dioxo-1-thiomorpholin-4-ylmethyl)-cyclobutyl]-5-[3-(7-oxa-bicyclo[2.2.1]hept-1-ylmethoxy)-phenyl]-7H-pyrrolo[2,3-d]pyrimidin-4-ylamine]"
2,36,"Nc1ncnc2c1c(-c1cccc(OC[C@@H]3CCCO3)c1)cn2[C@H]1C[C@@H](CN2CCS(=O)(=O)CC2)C1 [Example 4, cis-7-(3-[(1,1-dioxidothiomorpholin-4-yl)methyl]cyclobutyl}-5-{3-[(2S)-tetrahydrofuran-2-ylmethoxy]phenyl}-7H-pyrrolo[2,3-d]pyrimidin-4-amine]"
3,43,"NC(=O)[C@@H]1[C@@H]2C[C@@H]2CN1CC1CC(n2cc(-c3cccc(OCC4CCCCO4)c3)c3c(N)ncnc32)C1 (stereo partly drawn) [Example 102, (1R,2S,5S)-3-(((1S,3R)-3-(4-amino-5-(3-((tetrahydro-2H-pyran-2-yl)methoxy)phenyl)-7H-pyrrolo[2,3-d]pyrimidin-7-yl)cyclobutyl)methyl)-3-azabicyclo[3.1.0]hexane-2-carboxamide]"
4,35,"CC1(C)CCC(COc2cccc(-c3cn(C4CC(CN5CCC(F)C5)C4)c4ncnc(N)c34)c2)O1 (single isomer, unassigned) [Example 45]"
5,47,CN1CCN([C@H]2C[C@@H](c3nc(-c4cccc(OCC56CCC(CC5)O6)c4)c4c(N)nccn43)C2)CC1 [Example 181]
6,16,"COC(=O)NCC1CC(n2cc(-c3cccc(OCC45CCC(CC4)O5)c3)c3c(N)ncnc32)C1 (stereo not shown) [Example 161, (3-{4-amino-5-[3-(7-oxa-bicyclo[2.2.1]hept-1-ylmethoxy)-phenyl]-pyrrolo[2,3-d]pyrimidin-7-yl}-cyclobutylmethyl)-carbamic acid methyl ester]"
7,13,"CC1(C)CCC(COc2cccc(-c3cn([C@H]4C[C@H](CN5CC[C@@H](O)[C@H]5C(N)=O)C4)c4ncnc(N)c34)c2)O1 (stereo partly drawn) [Example 80, (2S,3R)-1-(trans-3-(4-amino-5-[3-(5,5-dimethyl-tetrahydro-furan-2-ylmethoxy)-phenyl]-pyrrolo[2,3-d]pyrimidin-7-yl}-cyclobutylmethyl)-3-hydroxy-pyrrolidine-2-carboxylic acid amide]"
8,18,"Nc1ncnc2c1c(-c1cccc(OCC34CCC(CC3)O4)c1)cn2[C@H]1C[C@@H](CN2CC[C@@H](O)C2)C1 [Example 214, (R)-1-(cis-3-{4-Amino-5-[3-(7-oxa-bicyclo[2.2.1]hept-1-ylmethoxy)-phenyl]-pyrrolo[2,3-d]pyrimidin-7-yl}-cyclobutylmethyl)-pyrrolidin-3-ol]"
9,4 to 22,"NC(=O)[C@@H]1CCCN1C[C@H]1C[C@@H](n2cc(-c3cccc(OC[C@H]4CCCCO4)c3)c3c(N)ncnc32)C1 [Example 43, (S)-1-[3-(4-amino-5-{3-[(R)-1-(tetrahydro-pyran-2-yl)methoxy]-phenyl}-pyrrolo[2,3-d]pyrimidin-7-yl)-cyclobutylmethyl]-pyrrolidine-2-carboxylic acid amide]"
